Earlier results, collected in patent US10156556B2, “Method for determining ecological risks of polycyclic aromatic hydrocarbon in water body” (priority 2013, dated 2018).

Settings: relative to benzoapyrene; Nisbet and Lagoy 1992; cited from earlier work

In the case of `c1ccc2c(c1)-c1cccc3cccc-2c13` [Flu], the Toxic equivalency factor is listed as 0.001.
